For 89 molecules, AC50 results are on record in PubChem BioAssay AID463199 (Broad Institute, 2010).

Calls of active or inactive are those of the source.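 The calls were made as follows: active = AC50, the dose giving half-maximal effect, exceeds a fixed cutoff for a compound that rescues yeast growth under heat; inactive = the rest, inconclusive results apart.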

The subject of this assay is S. cerevisiae Burl-1 ts mutant growth, BacTiter-Glo, 38.5C 24 h. Put plainly: growth induction of Burl-1 ts yeast mutant, dose response, counter-screen for SUMOylation pathway inhibitor project, whole organism, S. cerevisiae, luminescence (AID 463199). For orientation: A counterscreen serves to expose hits that act by an unwanted route or on another target.

As a reminder, the AC50 is the concentration at which the activity in the assay is half-maximal. As to `COc1ccc(S(=O)(=O)N2CCCOC2CNC(=O)C(=O)NCCCN2CCOCC2)cc1C` (centres undefined), the AC50 was > 42 µM (inactive).
On to `CSc1cccc(N2C(=O)C3CCCN3C2=S)c1` (centres undefined), for which the AC50 is > 42 µM (inactive).
The same measure for `COc1ccc(C(=O)OCC(=O)c2ccccc2)cc1S(=O)(=O)N1CCOCC1`: > 42 µM (inactive); for `CC(=O)c1ccc2noc(-c3ccc(F)cc3)c2c1`: > 42 µM (inactive); for `COc1cccc(/C=C2/C(=O)NN(c3ccc(Br)cc3)C2=O)c1O`: > 42 µM (inactive).
In the case of `CCn1nccc1C(=O)Nc1ccccc1OC`, the AC50 is > 42 µM (inactive).
The value for `C[C@@]12C(=O)Nc3cc(Cl)ccc3C(=O)N1[C@H]1c3ccccc3OC[C@@H]1[C@@H]2c1ccccc1` was > 42 µM (inactive).
The same measure for `CCN(CC(=O)N1CCCCCC1)S(=O)(=O)c1ccc(Cl)cc1`: > 42 µM (inactive).
As to `CC(=O)N1CC(=O)Nc2ccc(Cl)cc2C1c1ccccc1` (centres undefined), the AC50 was > 42 µM (inactive).
The value for `O=C(COC(=O)c1cccc(Br)c1)Nc1ccc2[nH]c(=O)[nH]c2c1` was > 42 µM (inactive); that for `c1ccc(N2CCN(C3CCSC3)CC2)cc1` (centres undefined) was > 42 µM (inactive); that for `CC(C)N=C(NS(=O)(=O)NC(=O)c1ccccc1)c1ccccc1` was > 42 µM (inactive).
The same measure for `CC(=O)Nc1cccc(OCC(=O)NS(=O)(=O)c2ccc(C)cc2)c1`: > 42 µM (inactive).
As to `COC(=O)[C@H](Cc1ccccc1)NC(=O)NC(C)CCc1ccccc1` (some centres undefined), the AC50 was > 42 µM (inactive).
The same measure for `O=C(Cn1nc(C(F)(F)F)c2c1CCCC2)N1CCOCC1`: > 42 µM (inactive); for `Cc1ccc2nc(NC(=O)CNS(=O)(=O)c3ccc(Br)s3)sc2c1`: > 42 µM (inactive); for `Cc1ccc(-c2[nH]ncc2CNCCc2cnn(-c3ccccc3)c2)cc1C`: > 42 µM (inactive).
The same measure for `N#Cc1ccc(Oc2ccc(S(=O)(=O)N3CCCCC3)cn2)cc1`: > 42 µM (inactive).
The value for `Cc1ccc(O)c(C(=O)CC(=O)c2cccc(F)c2)c1` was 20.1 µM; that for `COc1cccc(Cn2cnc3c(NS(=O)(=O)c4cccc(Cl)c4Cl)c(C)c(C)cc32)c1` was > 42 µM (inactive).
In the case of `CCCCc1ccc(S(=O)(=O)NNC(=S)NCc2ccco2)cc1`, the AC50 was > 42 µM (inactive).
The same measure for `O=C(CSc1nc2ccc(Cl)cc2[nH]1)NCc1ccco1`: > 42 µM (inactive); for `CC(=O)Nc1ccc(S(=O)(=O)N(C)CC(=O)Nc2ccc(Br)cc2F)cc1`: > 42 µM (inactive).
The same measure for `CCOc1cc(-c2ccccc2)nc(N)n1`: > 42 µM (inactive); for `CCOC(=O)C1(c2ccccc2)CCN(CCC(=O)Nc2ccccc2OC)CC1`: > 42 µM (inactive).
The same measure for `CN(C(=O)COc1cc(=O)n(C)c2ccccc12)c1ccc(Cl)cc1`: > 42 µM (inactive).
For the molecule `COc1ccc2cc(C(=O)Nc3ccc(Cl)cc3)sc(=O)c2c1OC`, the AC50 is > 42 µM (inactive).
With `CN(C)c1cccc(C(=O)Nc2cc(C(F)(F)F)ccc2-n2cnc3ccccc32)c1`, the AC50 was > 42 µM (inactive).
The same measure for `CCC(C)(C(=O)NC1CCCC1)N(C(=O)c1ccccn1)c1ccc(C)cc1` (centres undefined): > 42 µM (inactive); for `Cc1cccc(N2C(=O)CSC2c2cccnc2)c1` (centres undefined): > 42 µM (inactive).
As for `NC(=O)CN1CCOCCN(CC(N)=O)CCOCC1`, the AC50 was > 42 µM (inactive).
`O=C(CSc1ccc(Br)cc1)Nc1ccccc1N1CCOCC1`: the AC50 is > 42 µM (inactive).
The value for `CCOC(=O)C1CCN(Cc2ccc(OCc3ccccc3)cc2)CC1` was > 42 µM (inactive); that for `Cc1nc(N)c(Cc2ccccc2F)c(N)n1` was > 42 µM (inactive).
The value for `O=[N+]([O-])c1ccccc1CN1CC=C(c2ccc(F)cc2)CC1` was > 42 µM (inactive); that for `COc1ccc2c(CC(=O)Nc3ccc(OC)c(NS(=O)(=O)c4ccc(F)cc4)c3)coc2c1` was > 42 µM (inactive); that for `O=C(c1ccc(-c2ccccc2)cc1)C1CCCN(Cc2ccncc2)C1` (centres undefined) was > 42 µM (inactive).
As for `Cc1cccc(OCc2nnc(SCC(=O)N3c4ccccc4CC3C)n2C)c1C` (centres undefined), the AC50 is > 42 µM (inactive).
In the case of `CCN(CC)C(=O)CSc1nnc(SCc2ccc(Cl)cc2)s1`, the AC50 is > 42 µM (inactive).
For the molecule `COc1cc(CNCCN2CCOCC2)ccc1OCc1ccccc1Cl`, the AC50 is > 42 µM (inactive).
Consider `Cc1cc(C)c(NC(=O)CCN2CCN(Cc3ccccc3)CC2)c(C)c1`, for which the AC50 is > 42 µM (inactive).
The same measure for `O=C1CCC(/C=C/c2ccccc2)=NN1Cc1ccc(Cl)c(Cl)c1`: > 42 µM (inactive).
Take `COc1cccc2[nH]c(=O)c(-c3ccccc3)cc12`: the AC50 is > 42 µM (inactive).
The value for `Cc1cc(C)n(-c2nc(-c3cccc(Cl)c3)cs2)n1` was > 42 µM (inactive); that for `CCN(CC)S(=O)(=O)c1ccc(NC(=O)C(C)N(c2ccccc2)S(C)(=O)=O)cc1` (centres undefined) was > 42 µM (inactive).
The value for `CCC(C)N1C(=O)CN(C2CCCCCC2)C(=O)C1c1ccccc1F` (centres undefined) was > 42 µM (inactive).
The value for `Cn1c(CSc2nc3ccccc3s2)nnc1SCC(=O)NCCN1CCOCC1` was > 42 µM (inactive).
As for `CCCN1C(=O)c2ccc(C(=O)Nc3nccs3)cc2C1=O`, the AC50 is > 42 µM (inactive).
As for `O=[N+]([O-])c1ccc(-c2csc(N3CCc4ccccc4C3)n2)cc1`, the AC50 is > 42 µM (inactive).
The same measure for `Cc1[nH]c2ccccc2c1/C=N/NC(=O)c1cccc(Br)c1`: > 42 µM (inactive); for `COC(=O)c1ccc(Cn2cc(Cl)cn2)cc1`: > 42 µM (inactive); for `Cc1cccc(OCCC(=O)Nc2ccc(F)c(F)c2)c1`: > 42 µM (inactive).
The same measure for `c1ccc(-c2csc(N3CCN(c4ccccn4)CC3)n2)cc1`: > 42 µM (inactive); for `Cc1ccc(N(C(=O)CCl)C(C(=O)NC2CCCCC2)c2cccnc2)cc1C` (centres undefined): > 42 µM (inactive); for `S=c1[nH]ccn1-c1cccc(Cl)c1`: > 42 µM (inactive).
For the molecule `CCOC(=O)C1C(=O)NC(SCC(=O)Nc2nccs2)=C(C#N)C1c1ccccc1OCC` (centres undefined), the AC50 is > 42 µM (inactive).
The value for `CC(C)C(=O)NNc1ccc(C(F)(F)F)cn1` was > 42 µM (inactive); that for `Cc1cc(-c2ccc(Cl)cc2Cl)c(C#N)c(=O)[nH]1` was > 42 µM (inactive); that for `CN(C)C(=O)CCN1CCOCC1` was > 42 µM (inactive).
As for `O=C1CN(C(=O)COC(=O)CCNS(=O)(=O)c2ccc(Cl)cc2)c2ccccc2N1`, the AC50 is > 42 µM (inactive).
Take `Cc1ccc(S(=O)(=O)N2CCCC2C(=O)NCCc2ccccc2)cc1` (centres undefined): the AC50 was > 42 µM (inactive).
For the molecule `CS(=O)(=O)N(CC(=O)NCCSCc1ccccc1)c1ccc2c(c1)OCO2`, the AC50 was > 42 µM (inactive).
The same measure for `CCOC(=O)c1sc(NC(=O)CSc2n[nH]c(-c3ccc(Cl)cc3Cl)n2)c(C#N)c1C`: > 42 µM (inactive).
The value for `O=S(=O)(Nc1cccc2cn[nH]c12)c1ccc(F)cc1` was > 42 µM (inactive); that for `CSc1ccccc1-n1nnnc1SCC(=O)Nc1ccccc1C` was > 42 µM (inactive); that for `CCN(CC)CC(=O)Nc1ccc(Oc2ccc(NC(=O)CN(CC)CC)cc2)cc1` was > 42 µM (inactive).
The same measure for `O=C(O)c1cc(Oc2ccc(C(F)(F)F)cc2Cl)ccc1[N+](=O)[O-]`: > 42 µM (inactive); for `CCOc1ccc(S(=O)(=O)N2CCN(C(=O)CN3C(=O)NC4(CCCC4)C3=O)CC2)cc1`: > 42 µM (inactive).
On to `COc1ccc(-c2csc(NC(=O)CCS(=O)(=O)c3ccccc3)n2)c(OC)c1`, for which the AC50 is > 42 µM (inactive).
On to `Cc1ccccc1Cn1cc(NC(=O)c2cc3nc(-c4ccco4)cc(C(F)(F)F)n3n2)cn1`, for which the AC50 was > 42 µM (inactive).
On to `O=Cc1ccccc1OCCN1CCCC1=O`, for which the AC50 is > 42 µM (inactive).
As to `O=C(Nc1ccccc1N1CCOCC1)c1cc(Br)c(Br)s1`, the AC50 was > 42 µM (inactive).
The same measure for `S=C(c1ccc(N2CCOCC2)cc1)N1CCCCC1`: > 42 µM (inactive); for `CCCc1nnc(NC(=O)c2cn(CC)c3cc(N4CCN(C)CC4)c(F)cc3c2=O)s1`: > 21 µM (inactive).
For the molecule `Cc1cccc(CSc2ccc(-c3ccco3)nn2)c1`, the AC50 was > 42 µM (inactive).
The same measure for `O=C(COc1ccc([N+](=O)[O-])cc1)Nc1ccc(C(=O)NCc2cccnc2)cc1`: > 42 µM (inactive); for `CCCCn1c(N)c(N(CCOC)C(=O)c2cnccn2)c(=O)[nH]c1=O`: > 42 µM (inactive).
Regarding `CN(C)C(=O)CSc1nc2ccc(N3C(=O)c4ccccc4C3=O)cc2s1`, the AC50 is > 42 µM (inactive).
As for `O=S(=O)(NCCN1CCCC1)c1cccc2cccnc12`, the AC50 was > 42 µM (inactive).
Regarding `CN(C)CC/C=C1/c2cc(F)ccc2Sc2ccc(Cl)cc21`, the AC50 was > 42 µM (inactive).
The value for `Cc1nnsc1C(=O)N1CCC(CO)(Cc2ccccc2Cl)CC1` was > 42 µM (inactive).
The value for `COCc1[nH][nH]c(=O)c1C=Nc1ccc(OC(F)(F)F)cc1` was > 42 µM (inactive).
On to `CN(C)c1ccc(NS(=O)(=O)c2cccc(Cl)c2)cc1`, for which the AC50 was > 42 µM (inactive).
As to `CC(=O)C1(c2ccccc2)CCNCC1`, the AC50 was > 21 µM (inactive).
As to `CCOC(=O)c1ccc(NC(=O)c2nc[nH]c2C(=O)N2CCc3ccccc3C2)cc1`, the AC50 is > 42 µM (inactive).
With `COc1ccccc1CNC(=O)[C@H](C)NC(=O)C1CCN(C(=O)[C@@H](N)CC(C)C)CC1`, the AC50 was > 42 µM (inactive).
The same measure for `N/C(Cn1cncn1)=N\NC(=O)c1ccc(Cl)cc1Cl`: > 42 µM (inactive); for `COCCn1c(SCC(=O)N2CCCC2)nnc1-c1ccoc1C`: > 42 µM (inactive).
Regarding `CSc1ccc(CCNC(=O)C2CCCN(S(=O)(=O)N3CCOCC3)C2)cc1` (centres undefined), the AC50 was > 42 µM (inactive).
